Series [1] concerns the target T1, IAPP (Fluos-IAPP, mostly monomers) (Homo sapiens, UniProt P10997).
T1 construct: made in house; host or cells: chemical synthesis
T1 sequence (P10997 34-70 limits assumed): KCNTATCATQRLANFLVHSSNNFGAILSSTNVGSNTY
Description: Fluorescence spectroscopic titration of Fluos-IAPP. It is filed as binding. The note with it: for Kd: SD. Here is the method: Fluorescence spectros copic titrations
Fluorescence spectrosco pic titration studies w ere performed with a JASC O FP-6500 fluorescence spectrophotometer using a previously described experimental protocol.[1, 5, 7] Briefly, excitation was at 492 nm and emission spectra were recorded between 500 and 600 nm. The app arent (app.) Kds of the interactions of IAPP with LL-37 and its segments LL-37(1- 14) and LL-37(15- 37) were quantified by titrating synthetic N α-amino-terminal fluorescein labeled IAPP (5 nM) with various amounts of each of the peptides . For all exp eri ments , freshly made stocks of peptides and their fluorescently lab eled an alogs in HF IP wer e used. Measurements w er e performed in 10 mM sodium phosphate buffer (pH 7.4) containing 1% HFIP within 2-5 min following solution preparation at room temperature. Of note, under these conditions freshly made Fluos-IAPP (5 nM) solutions consist mostly of monomers.[1] App. Kds were calculated using 1/1 binding models as previously described and ar e means (± SD) of three binding curves.[1, 3, 5, 7]
Cross-linking, NuPAGE, and Western Blot analysis
Cross-linking studies were preformed using a previously developed assay system.[5] Briefly, solutions of IAPP alone (30 µM) and its mixtures with LL-37 or scrLL- 37 at the indicated molar ratios (IAPP/LL-37 at 1/1 or 1/0.1) wer e p repared in aqueous sodium phosphate buffer, pH 7.4,

For series [2], the target named is T2, IAPP monomers and fibrils (Homo sapiens, UniProt P10997).
T2 construct: The 37‐residue IAPP is secreted from the β‐cells together with insulin; made in house; host or cells: chemical synthesis (Fmoc solid-phase synthesis on Rink resin)
T2 sequence (P10997 34-70 limits assumed): T1 sequence (P10997 34-70 limits assumed)
Description: Dot blot binding to IAPP monomers and fibrils. The note with it: IAPP monomers and fibrils (40 µg) on nitrocellulose, FAM-LL-37 200 nM, overnight 10 °C; representative of 4 assays. The procedure:
Solutions were cross-linked using 25% aqueous glutaraldehyde (Sigma-Aldrich) an d 10% aqueous trichloro acetic acid (TCA ) was […] buffer, boiled for 5 min, and subjected to NuPAGE electrophoresis in 4- 12% Bis-Tris gels with MES running buffer (Invitrogen). The s ame volume of each solution (same IAPP amount) was loaded in all l anes. Peptid es were blotted using a X Cell II Blot Module blotting system (Invitrogen ). IAPP or […] using a polyclonal rabbit anti-IAPP antibody (Peninsula) or a monoclonal mouse anti-LL- 37 antibody (Santa Cruz Biotechnology), resp ectively in combination with suitable peroxidase (POD)-coupled s econdary antibodies (Pierce & Am […] Super Signal West Dura Extended Duration Substrate (Pierce). Of note, previous studies provided evidence for the […] of th e cross-linking assay; in addition, no new bands were obs […]-37 (1/1) mixtures (data not shown).[5] Dot blot analysis IAPP monomers or IAPP fibrils (fIAPP) containin g solutions (different am ounts up to 40 μg) were spotted onto a nitrocellulose membrane. […] In addition, to control for t he interference of fibril autofluorescence, a membrane containing spotted f IA P P which had been incubated in buffer alone w/o FAM-LL-37 was included in each assay; in general, fIAPP autofluorescence contribute d up to 25% of the total amount of fluorescence observed in fIAPP bound toFAM -LL- 37. […]

Series [3] relates to cytotoxic IAPP assemblies on RIN5fm cells.
Series [4] relates to RIN5fm cells. As to conditions: LL-37 alone, 7 days aged, 1 assay, n=3.
[5] abbreviates: Fluos-IAPP 5 nM, 10 mM sodium phosphate pH 7.4, 1% HFIP, room temperature, 1/1 binding model, mean (±SD) of three binding curves, read-out: app. Kd of interaction with Fluos-IAPP.

Where two headings read alike, the source gives them in different places. Ends that are not written are not given here.

LLGDFFRKSKEKIG [LL-37(1-14)]: in series [1] (setting [5]), the Kd turned out to be 2540 nM.

With “FAM-LL-37: N-terminal fluorescein-labeled LL-37 with 6-aminohexanoic acid spacer, from Anaspec”, in series [2], the “binding to IAPP fibrils and monomers (dot blot)” value was “bound both IAPP fibrils and monomers”.

Turning to `CC[C@H](C)[C@H](NC(=O)[C@H](CCCCN)NC(=O)[C@H](CCC(=O)O)NC(=O)[C@H](CCCCN)NC(=O)[C@H](CO)NC(=O)[C@H](CCCCN)NC(=O)[C@H](CCCNC(=N)N)NC(=O)[C@H](Cc1ccccc1)NC(=O)[C@H](Cc1ccccc1)NC(=O)[C@H](CC(=O)O)NC(=O)CNC(=O)[C@H](CC(C)C)NC(=O)[C@@H](N)CC(C)C)C(=O)NCC(=O)N[C@@H](CCCCN)C(=O)N[C@@H](CCC(=O)O)C(=O)N[C@@H](Cc1ccccc1)C(=O)N[C@@H](CCCCN)C(=O)N[C@@H](CCCNC(=N)N)C(=O)N[C@H](C(=O)N[C@H](C(=O)N[C@@H](CCC(N)=O)C(=O)N[C@@H](CCCNC(=N)N)C(=O)N[C@H](C(=O)N[C@@H](CCCCN)C(=O)N[C@@H](CC(=O)O)C(=O)N[C@@H](Cc1ccccc1)C(=O)N[C@@H](CC(C)C)C(=O)N[C@@H](CCCNC(=N)N)C(=O)N[C@@H](CC(N)=O)C(=O)N[C@@H](CC(C)C)C(=O)N[C@H](C(=O)N1CCC[C@H]1C(=O)N[C@@H](CCCNC(=N)N)C(=O)N[C@H](C(=O)N[C@@H](CCC(=O)O)C(=O)N[C@@H](CO)C(=O)O)[C@@H](C)O)C(C)C)[C@@H](C)CC)C(C)C)[C@@H](C)CC` [LL-37], the “increase in fluorescence emission of Fluos-IAPP” value in series [1] (Fluos-IAPP 5 nM with 100-fold molar excess of LL-37, pH 7.4) was 322%. Also, in series [1], the Kd is 88.1 nM. The “effect on formation of cytotoxic IAPP assemblies (MTT reduction)” value in series [3] was “effectively suppressed”. Also, it took 17 nM to reach half-maximal inhibition in series [3] (rat, SD) (IC50). Also, the “cytotoxicity of peptide alone (MTT reduction)” value in series [4] is “not cytotoxic”.

For the compound KEFKRIVQRIKDFLRNLVPRTES [LL-37(15-37)], the Kd in series [1] (setting [5]) was 31.9 nM.

The record behind these values is PMC7497016, “The Human Host‐Defense Peptide Cathelicidin LL‐37 is a Nanomolar Inhibitor of Amyloid Self‐Assembly of Islet Amyloid Polypeptide (IAPP)” (Angewandte Chemie (International Ed. in English), 2020).
